16 compounds from US9796714B2, “Calcium channel agonists” (University of Pittsburgh—Of the Commonwealth System of …, priority 2013, dated 2017) can be followed below.

Each structure is given as a SMILES string. Bounds are passed on as bounds.

This experiment deals with T1, N-type Ca^2+ channel (Cav2.2) (Rattus norvegicus, UniProt Q02294).
T1 construct: expressed in transfected cells; later also transient transfection
Put plainly: N-type Ca2+ channel agonist activity, whole-cell perforated patch clamp of tail currents in tsA201 cells. Conditions: for EC50: whole cell perforated patch clamp, deactivation (tail) currents from N-type channels, read-out: N-Type Ca^2+ Channel Activity EC50 +/− SEM. In kind it is cell-based. As for the experimental part:
tsA201 cells expressing calcium channels. […] For subsequent evaluation of effects on N-, P/Q-, or L-type channels, tsA-201 cells were transiently transfected with Cav2.2, Cav2.1, or Cav1.3, in combination with Cavβ3 and […] (Addgene, Cambridge Mass.) using FuGENE 6 (Life Technologies, Grand Island, N.Y.). All cells were maintained in DMEM supplemented with 10% fetal bovine serum. For the stable cell line expressing N-type channels, 25 μg/mL zeocin, 5 μg/mL blasticidin, and 25 μg/mL hygromycin were added as selection agents.
Whole-cell patch clamp recordings of calcium current. […] Briefly, the pipette solution consisted of […] Cs2SO4, 60 mM CsCl, 1 mM MgCl2, 10 mM 4-(2-hydroxyethyl)-1-piperazineethanesulfonic acid (HEPES) at pH 7.4. […] Patch pipettes were fabricated from borosilicate glass and pulled to a resistance of about 1 MΩ. Before each experiment, a stock solution consisting of 3 mg amphotericin-B dissolved into 50 μL anhydrous DMSO was made. […] Capacitive currents and passive membrane responses to voltage commands were subtracted from the data. Currents were amplified by an Axopatch 200B amplifier, filtered at 5 KHz, and digitized at 10 KHz for subsequent analysis using pClamp software (Axon Instruments/Molecular Devices; Sunnyvale, Calif.). […] To measure effects on calcium channel tail currents, the tail current integral was measured before and after application of a derivative, with the integral of each trace being normalized to its peak. All experiments were carried out at room temperature (22° C.). […] All other salts and chemicals were obtained from Sigma-Aldrich chemical company (St. Louis, Mo.).
Statistical Analysis. Statistical analysis was performed using either GraphPad Prism 5 (GraphPad Software, Inc.) or Origin 7 (OriginLab) software. For the dose-response analyses on Ca^2+ current, each concentration of the four different compounds was tested in 3-6 cells. […] All EC50 and IC50 values and their respective errors were determined by performing 100 iterations of a logistic function curve fit. Data are presented as mean±s.e.m. unless otherwise noted.

T1 sequence (Q02294 whole entry): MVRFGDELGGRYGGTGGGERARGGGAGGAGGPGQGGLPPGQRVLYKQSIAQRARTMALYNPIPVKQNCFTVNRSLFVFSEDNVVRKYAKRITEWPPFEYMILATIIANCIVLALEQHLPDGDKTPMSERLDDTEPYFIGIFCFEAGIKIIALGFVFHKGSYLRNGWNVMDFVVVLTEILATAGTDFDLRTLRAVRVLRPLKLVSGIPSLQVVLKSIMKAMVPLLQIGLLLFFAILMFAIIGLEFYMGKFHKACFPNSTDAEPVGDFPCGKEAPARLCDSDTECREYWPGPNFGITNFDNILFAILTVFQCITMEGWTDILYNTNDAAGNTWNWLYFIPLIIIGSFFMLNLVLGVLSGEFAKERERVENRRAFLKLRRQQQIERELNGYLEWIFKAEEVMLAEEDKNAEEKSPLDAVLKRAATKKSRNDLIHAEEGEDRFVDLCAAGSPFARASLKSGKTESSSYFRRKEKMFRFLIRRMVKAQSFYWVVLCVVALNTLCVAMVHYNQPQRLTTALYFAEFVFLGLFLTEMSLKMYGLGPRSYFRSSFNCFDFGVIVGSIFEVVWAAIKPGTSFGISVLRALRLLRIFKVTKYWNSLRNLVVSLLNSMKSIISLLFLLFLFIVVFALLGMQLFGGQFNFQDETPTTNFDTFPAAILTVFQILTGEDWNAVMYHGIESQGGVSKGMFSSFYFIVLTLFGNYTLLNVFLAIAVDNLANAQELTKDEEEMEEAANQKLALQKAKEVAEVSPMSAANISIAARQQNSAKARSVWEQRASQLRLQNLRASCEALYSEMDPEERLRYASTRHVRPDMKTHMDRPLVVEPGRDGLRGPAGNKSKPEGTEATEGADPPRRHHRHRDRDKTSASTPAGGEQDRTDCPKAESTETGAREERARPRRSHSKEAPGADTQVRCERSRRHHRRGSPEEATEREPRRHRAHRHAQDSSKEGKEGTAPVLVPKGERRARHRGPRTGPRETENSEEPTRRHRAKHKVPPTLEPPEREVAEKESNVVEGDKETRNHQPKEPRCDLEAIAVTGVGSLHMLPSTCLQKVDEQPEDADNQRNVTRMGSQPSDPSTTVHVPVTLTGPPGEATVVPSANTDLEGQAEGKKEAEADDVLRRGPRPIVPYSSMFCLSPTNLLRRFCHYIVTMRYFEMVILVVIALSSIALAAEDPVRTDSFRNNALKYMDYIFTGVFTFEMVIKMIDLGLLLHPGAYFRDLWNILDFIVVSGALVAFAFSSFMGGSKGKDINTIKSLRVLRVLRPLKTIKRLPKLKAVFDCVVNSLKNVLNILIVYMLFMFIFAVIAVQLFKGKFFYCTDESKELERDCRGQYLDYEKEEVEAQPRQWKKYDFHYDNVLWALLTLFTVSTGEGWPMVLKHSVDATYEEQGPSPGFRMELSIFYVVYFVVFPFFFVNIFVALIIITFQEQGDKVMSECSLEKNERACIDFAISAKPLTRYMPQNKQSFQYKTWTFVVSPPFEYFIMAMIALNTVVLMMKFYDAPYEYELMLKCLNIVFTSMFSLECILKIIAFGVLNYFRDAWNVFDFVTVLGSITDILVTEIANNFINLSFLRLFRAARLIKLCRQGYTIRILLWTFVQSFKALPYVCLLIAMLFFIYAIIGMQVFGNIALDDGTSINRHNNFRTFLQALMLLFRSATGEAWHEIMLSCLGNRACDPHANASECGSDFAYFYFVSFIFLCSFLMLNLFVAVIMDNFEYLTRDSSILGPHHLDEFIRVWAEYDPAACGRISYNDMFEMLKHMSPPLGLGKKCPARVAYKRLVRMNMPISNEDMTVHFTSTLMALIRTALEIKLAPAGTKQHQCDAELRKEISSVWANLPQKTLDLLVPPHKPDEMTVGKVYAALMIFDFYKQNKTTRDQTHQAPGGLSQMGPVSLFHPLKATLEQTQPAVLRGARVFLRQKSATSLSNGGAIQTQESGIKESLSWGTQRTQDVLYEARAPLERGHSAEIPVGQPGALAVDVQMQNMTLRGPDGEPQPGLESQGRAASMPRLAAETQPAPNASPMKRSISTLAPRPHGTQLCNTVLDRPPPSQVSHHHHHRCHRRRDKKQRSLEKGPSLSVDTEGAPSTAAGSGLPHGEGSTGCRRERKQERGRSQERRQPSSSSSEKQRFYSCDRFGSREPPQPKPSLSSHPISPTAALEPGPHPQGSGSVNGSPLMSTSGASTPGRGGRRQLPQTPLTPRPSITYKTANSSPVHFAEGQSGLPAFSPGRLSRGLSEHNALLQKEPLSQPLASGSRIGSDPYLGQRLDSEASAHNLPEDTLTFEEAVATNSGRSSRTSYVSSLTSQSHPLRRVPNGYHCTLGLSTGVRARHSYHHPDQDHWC

Take `CCCn1cnc2c(NCc3ccc(-c4ccccc4)cc3)nc(N[C@H](CC)CO)nc21` [Compound 13a, (R)-2-(6-(Biphenyl-4-ylmethylamino)-9-propyl-9H-purin-2-ylamino)butan-1-ol]: the EC50 was above 100 µM. Same read-out and setting: for `CCCn1cnc2c(NCCc3ccccc3)nc(N[C@H](CC)CO)nc21` [Compound 13c, (R)-2-(6-(Phenethylamino)-9-propyl-9H-purin-2-ylamino)butan-1-ol] the value was above 100 µM. For `CCCn1cnc2c(NCc3ccccc3)nc(N[C@H](CC)CO)nc21` [Compound 13d, (R)-2-(6-(Benzylamino)-9-propyl-9H-purin-2-ylamino)butan-1-ol], the EC50 amounted to 14.2 µM. Also, where the note is “N-type”, the “increased Ca^2+ channel agonism vs. (R)-roscovitine” value is “ca. 2 fold”. As for `CCCn1cnc2c(Nc3ccccc3)nc(N[C@H](CC)CO)nc21` [Compound 13e, (R)-2-(6-(Phenylamino)-9-propyl-9H-purin-2-ylamino)butan-1-ol], the EC50 was above 100 µM. Consider `CCCn1cnc2c(NCc3cccnc3)nc(N[C@H](CC)CO)nc21` [Compound 13f, (R)-2-(9-Propyl-6-(pyridin-3-ylmethylamino)-9H-purin-2-ylamino)butan-1-ol], for which the EC50 was above 100 µM. For `CCCn1cnc2c(NCC3CC3)nc(N[C@H](CC)CO)nc21` [Compound 13g, (R)-2-(6-(Cyclopropylmethylamino)-9-propyl-9H-purin-2-ylamino)butan-1-ol], the EC50 was above 100 µM. Further, the “agonist effect on the Ca^2+ channel tail currents (in words)” value (N-type) is listed as “complete loss of N-type Ca^2+ channel activity”. `CC[C@H](CO)Nc1nc(NCc2ccc(-c3ccccc3)cc2)c2ncn(C)c2n1` [Compound 13h, (R)-2-(6-(Biphenyl-4-ylmethylamino)-9-methyl-9H-purin-2-ylamino)butan-1-ol]: the EC50 was above 100 µM. Same read-out and setting: the figure for `CC[C@H](CO)Nc1nc(NCCc2ccccc2)c2ncn(C)c2n1` [Compound 13j, (R)-2-(9-Methyl-6-(phenethylamino)-9H-purin-2-ylamino)butan-1-ol] is above 100 µM; for `CC[C@H](CO)Nc1nc(Nc2ccccc2)c2ncn(C)c2n1` [Compound 13l, (R)-2-(9-Methyl-6-(phenylamino)-9H-purin-2-ylamino)butan-1-ol] it is above 100 µM.

For `CC[C@H](CO)Nc1nc(NCC2CC2)c2ncn(C)c2n1` [Compound 13m, (R)-2-(6-(Cyclopropylmethylamino)-9-methyl-9H-purin-2-ylamino)butan-1-ol], the EC50 was above 100 µM.

On to `CC[C@H](CO)Nc1nc(NCc2cccnc2)c2ncn(C)c2n1` [Compound 13n, (R)-2-(9-Methyl-6-(pyridin-3-ylmethylamino)-9H-purin-2-ylamino)butan-1-ol], for which the EC50 is above 100 µM.

`CCCn1cnc2c(NCc3ccc(C(F)(F)F)cc3)nc(N[C@H](CC)CO)nc21` [Compound 13o, (R)-2-(9-Propyl-6-(4-(trifluoromethyl)benzylamino)-9H-purin-2-ylamino)butan-1-ol]: the EC50 is above 100 µM. On the same count and under the same terms, the figure for `CC[C@H](CO)Nc1nc(NCC2CC2)c2ncn(C(C)C)c2n1` [Compound 13p, (R)-2-(6-(Cyclopropylmethylamino)-9-isopropyl-9H-purin-2-ylamino)butan-1-ol] is above 100 µM; for `CC[C@H](CO)Nc1nc(NCCc2ccccc2)c2ncn(C(C)C)c2n1` [Compound 13q, (R)-2-(9-Isopropyl-6-(phenethylamino)-9H-purin-2-ylamino)butan-1-ol] it is above 100 µM; for `CC[C@H](CO)Nc1nc(NCc2cccnc2)c2ncn(C(C)C)c2n1` [Compound 13r, (R)-2-(9-Isopropyl-6-(pyridin-3-ylmethylamino)-9H-purin-2-ylamino)butan-1-ol] it is above 100 µM. The same measure, in the same setting: for `CC[C@H](CO)Nc1nc(NCc2ccc(-c3ccccc3)cc2)c2ncn(C(C)C)c2n1` [Compound 13s, (R)-2-(6-(Biphenyl-4-ylmethylamino)-9-isopropyl-9H-purin-2-ylamino)butan-1-ol] the value was above 100 µM.
